Laboratory results: patent US6203976A, “Methods of preparing compositions comprising chemicals capable of transcriptional modulation” (OSI Pharmaceuticals, Inc., priority 1994, dated 2001)
Where “and” joins values, the source holds several entries; their conditions need not be identical. Equal entries are not always repeated. Where two headings read alike, the source gives them in different places.

Tests used:
[1] = system: human growth hormone (532) promoter; experiment: High-throughput luciferase reporter assay, human Growth Hormone promoter (Screen III); type: cell-based; conditions: for FOLD INDUCTION RELATIVE TO SOLVENT CONTROL, hGH: Screen III activators
MMTV (M10) promoter = experiment: High-throughput luciferase reporter assay, MMTV promoter (Screen III); type: cell-based, mouse; conditions: for FOLD INDUCTION RELATIVE TO SOLVENT CONTROL, MMTV: Screen III activators
Experimental: pMluci and pSV2Neo, an antibiotic resistance plasmid (112), were co-transfected into NIH/3T3 mouse fibroblast cells using the calcium phosphate precipitation method (103) with a commercially available kit (Pharmacia, Piscataway N.J.). Two days later, cells were transferred to media containing 0.4 mg/ml G418 and were grown for an additional 10-14 days. G418-resistant clones were isolated by standard methods. Once sufficient cell numbers were obtained, clones were analyzed based on several criteria: constitutive luciferase production, induction of luciferase expression by dexamethasone (1 μm, Sigma, St. Louis, Mo.), satisfactory attachment to microtiter plates used in the high-throughput screen and acceptable standard deviation in multiple luciferase expression assays (see below for assay protocol). This analysis was carried out using the luciferase assay conditions described above. Of the clones which satisfied the above criteria for the high throuphput screen, one clone, M10, was selected for use.

[2] = system: human G-CSF (G21) promoter; experiment: High-throughput luciferase reporter assay, G-CSF promoter (Screen III); conditions: for FOLD INHIBITION RELATIVE TO SOLVENT CONTROL, GCSF: Screen III inhibitors; for FOLD INHIBITION RELATIVE TO SOLVENT CONTROL, GCSF / FOLD INDUCTION RELATIVE TO SOLVENT CONTROL, GCSF: G21 cells, 6 hours; for FOLD INDUCTION RELATIVE TO SOLVENT CONTROL, GCSF: Screen III activators
[3] = Screen III inhibitors, 532 cells, 6 hours
[4] = Screen III inhibitors, M10 cells, 6 hours

SMILES | FOLD INHIBITION RELATIVE TO SOLVENT CONTROL, hGH [1, 3] [fold] | FOLD INHIBITION RELATIVE TO SOLVENT CONTROL, MMTV (MMTV (M10) promoter; [4]) [fold] | FOLD INDUCTION RELATIVE TO SOLVENT CONTROL, hGH ([1]; 532 cells, 6 hours) [fold] | FOLD INDUCTION RELATIVE TO SOLVENT CONTROL, MMTV (MMTV (M10) promoter; M10 cells, 6 hours) [fold] | FOLD INDUCTION RELATIVE TO SOLVENT CONTROL, GCSF [2] [fold] | further results
NCCC(=O)N[C@@H](Cc1cnc[nH]1)C(=O)O [compound 1771] | 10.00 | 0.72 | – | – | – | FOLD INHIBITION RELATIVE TO SOLVENT CONTROL, GCSF [2]: 0.71 fold
O=C(Nc1cccc(C2=NCCN2)c1)Nc1cccc(C2=NCCN2)c1 [compound 1598] | – | – | 5.32 | 1.27 | 0.72 | –
N=c1cc2oc3cc(N)ccc3nc-2c2ccccc12 [compound 1776] | – | – | 0.15 | 1.36 | 3.50 | –
Cc1ccc(C(=O)c2ccccc2N)cc1 [compound 1384] | – | – | 0.50 | 2.43 | 1.33 | –
Cc1cc(C2(c3cc(C)c(O)c(CN(CC(=O)O)CC(=O)O)c3)OC(=O)c3ccccc32)cc(CN(CC(=O)O)CC(=O)O)c1O [compound 1773] | 10.00 | 0.67 | – | – | – | FOLD INHIBITION RELATIVE TO SOLVENT CONTROL, GCSF [2]: 0.62 fold
Nc1ccc(S(=O)(=O)O)c2cccc(O)c12 [compound 1337] | – | – | 15.87 | 0.23 | 0.07 | –
O=c1c(O)c(-c2ccc(O)c(O)c2)oc2cc(O)ccc12 [compound 325] | – | – | 5.42 | 1.0 | 0.14 | –
c1ccc(-c2cccc(-c3ccccn3)n2)nc1 [compound 453] | – | – | 0.58 | – | 0.79 | FOLD INDUCTION RELATIVE TO SOLVENT CONTROL, MMTV (MMTV (M10) promoter; M10 cells, 6 hours, 360 min): 13.3 fold and 13.30 fold; ability to activate the MMTV promoter with methanol replacing DMSO (MMTV (M10) promoter; chemical dissolved in methanol instead of DMSO): did not affect its ability to activate the MMTV promoter
Nc1ccc(SSc2ccc(N)cc2)cc1 [compound 1483] | – | – | 0.38 | 1.09 | 4.64 | –
OCC1CC2C3CC(CO)C(C3)C2C1 (stereo not shown) [compound 1678] | – | – | 7.08 | 0.89 | 0.36 | –
O=C1CCCCC1Cl (stereo not shown) [compound 2148] | – | – | 0.92 | 2.82 | 0.45 | –
O=C(O)CC1NC(=O)NC1=O (stereo not shown) [compound 630] | 3.57 | 0.74 | – | – | – | FOLD INHIBITION RELATIVE TO SOLVENT CONTROL, GCSF [2]: 0.70 fold
Nc1c(Cl)ncnc1Cl [compound 1269] | – | – | 0.91 | 2.18 | 0.72 | –
C[C@]12C=CC(=O)C=C1CC[C@@H]1[C@@H]2[C@@H](O)C[C@@]2(C)[C@H]1CC[C@]2(O)C(=O)CO [compound 764] | – | – | – | – | – | FOLD INHIBITION RELATIVE TO SOLVENT CONTROL, hGH [1]: 4.54; FOLD INHIBITION RELATIVE TO SOLVENT CONTROL, MMTV (MMTV (M10) promoter): 0.59
Nc1c(Cl)c(Cl)nc(C(=O)O)c1Cl [compound 1561] | – | – | 8.05 | 0.48 | 0.23 | –
N#Cc1cccc(Br)c1 [compound 1703] | 10.00 | 0.90 | – | – | – | FOLD INHIBITION RELATIVE TO SOLVENT CONTROL, GCSF [2]: 0.76 fold
OCc1cccc(Cl)c1 [compound 2121] | 0.40 | 1.14 | – | – | – | –
O=C(O)c1cc(C(F)(F)F)ccc1C(F)(F)F [compound 1655] | 4.76 | 0.81 | – | – | – | FOLD INHIBITION RELATIVE TO SOLVENT CONTROL, GCSF [2]: 0.54 fold
CN(C)c1ccc2cc3ccc(N(C)C)cc3nc2c1 [compound 80] | – | – | 0.66 | 0.83 | 5.87 | –
O=C1OC2(c3cc(I)c(O)c(I)c3Oc3c2cc(I)c(O)c3I)c2c(Cl)c(Cl)c(Cl)c(Cl)c21 [compound 792] | – | – | 5.31 | 1.21 | 0.94 | –
Nc1nc(N)nc(N)n1 [compound 364] | – | – | 1.18 | 1.07 | 3.67 | –

SMILES | FOLD INHIBITION RELATIVE TO SOLVENT CONTROL, hGH [1, 3] [fold] | FOLD INHIBITION RELATIVE TO SOLVENT CONTROL, MMTV (MMTV (M10) promoter; [4]) [fold] | FOLD INDUCTION RELATIVE TO SOLVENT CONTROL, hGH ([1]; 532 cells, 6 hours) [fold] | FOLD INDUCTION RELATIVE TO SOLVENT CONTROL, MMTV (MMTV (M10) promoter; M10 cells, 6 hours) [fold] | FOLD INDUCTION RELATIVE TO SOLVENT CONTROL, GCSF [2] [fold] | further results
COC(=O)CP(=O)(OCC(F)(F)F)OCC(F)(F)F [compound 1651] | 3.57 | 0.70 | – | – | – | FOLD INHIBITION RELATIVE TO SOLVENT CONTROL, GCSF [2]: 0.69 fold
Nc1c2ccccc2nc2ccccc12 [compound 1904] | – | – | 0.54 | 0.82 | 4.12 | –
NC(=O)N1c2ccccc2CCc2ccccc21 [compound 299] | – | – | 5.46 | 0.47 | 0.53 | –
CCN(CC)CCCC(C)Nc1c2ccc(Cl)cc2nc2ccc(OC)cc12 (stereo not shown) [compound 423] | – | – | 0.56 | 0.64 | 2.39 | –
O=c1[nH]c(=O)n([C@H]2C[C@H](O)[C@@H](CO)O2)cc1Br [compound 543] | – | – | 0.72 | 0.98 | 7.17 | –
N=c1ccc2nc3ccc(N)cc3sc-2c1 [compound 836] | – | – | 0.23 | 0.58 | 3.20 | –
N#Cc1ccc(Br)cc1 [compound 1704] | 4.16 | 0.94 | – | – | – | FOLD INHIBITION RELATIVE TO SOLVENT CONTROL, GCSF [2]: 0.77 fold
CC(=O)n1ccnc1 [Chemical #58, 1-Acetylimidazole] | – | – | 0.17 | 0.42 | 6.03 | scored as positive in repeat assays, G-CSF ([2]; 48 independent luciferase assays performed on the same day): scored as positives in every single one of these assays
CCOc1ccc2nc3cc(N)ccc3c(N)c2c1 [compound 790] | – | – | 5.94 | 0.58 | 0.01 | –
O=C(O)c1[nH]c(=O)[nH]c(=O)c1I [compound 633] | – | – | 0.86 | 2.46 | 1.02 | –
c1ccc(-c2nccnc2-c2ccccn2)nc1 [compound 1641] | 5.55 | 0.60 | – | – | – | FOLD INHIBITION RELATIVE TO SOLVENT CONTROL, GCSF [2]: 0.83 fold
Cc1cc(=O)oc2cc(OCC(=O)O)ccc12 [compound 1764] | 7.14 | 0.82 | – | – | – | FOLD INHIBITION RELATIVE TO SOLVENT CONTROL, GCSF [2]: 0.55 fold
CC(=O)OCC(=O)[C@@]1(O)CC[C@H]2[C@@H]3CCC4=CC(=O)C=C[C@]4(C)[C@H]3[C@@H](O)C[C@@]21C [compound 765] | – | – | 1.30 | 2.66 | 0.96 | –
O=S(=O)(O)c1ccc(-c2nnc(-c3ccnc(-c4nnc(-c5ccc(S(=O)(=O)O)cc5)c(-c5ccc(S(=O)(=O)O)cc5)n4)c3)nc2-c2ccc(S(=O)(=O)O)cc2)cc1 [compound 1604] | 5.00 | 0.97 | – | – | – | FOLD INHIBITION RELATIVE TO SOLVENT CONTROL, GCSF [2]: 0.77 fold
CCn1c(=O)[nH]c2ccccc21 [compound 322] | – | – | 11.18 | 1.12 | 0.60 | –
O=C(N[C@H](CO)[C@H](O)c1ccc([N+](=O)[O-])cc1)C(Cl)Cl [compound 2191] | – | – | 0.35 | 7.32 | 0.37 | –
ClCCCCCBr [compound 2097] | – | – | 0.88 | 1.22 | – | –
O=c1c(O)c(-c2ccc(O)cc2O)oc2cc(O)cc(O)c12 [compound 371] | 0.41 | 0.89 | – | – | – | –
NC(=O)c1ccccc1O [compound 798] | 0.90 | 0.68 | – | – | – | –
O=C(c1ccccc1)c1ccncc1 [compound 209] | 1.08 | 0.81 | – | – | – | –
Cc1n[nH]cc1Br [compound 2082] | 0.65 | 1.23 | – | – | – | –
